“And” between values parts separate entries of the source, which are not always exact repeats. Identical values can stand only once.
Tested on: K24384-001-R-PDC complex spheroid growth
Experiment: Anticancer human tumor K24384-001-R-PDC patient-derived pancreatic adenocarcinoma cell line growth inhibition [AhR]
Conditions: for viability, T/C: stronger effect = lower value
Text: Multicellular complex tumor spheroid response to aryl hydrocarbon receptor antagonists in combination with a variety of drugs and investigational agents in selected tumor cell lines
The current study was undertaken to assess response to aryl hydrocarbon receptor antagonists in combination with standard-of-care drugs and investigational agents in solid tumor complex spheroid models. Complex spheroids include a stromal component modeled by human endothelial cells (HUVEC) and fibroblasts modeled by human mesenchymal stem cells (MSCs). The concentration ranges selected for each drug and investigational agent were based upon clinically achievable concentrations if the clinical Cmax of the agent was known.
Compounds. The drugs and investigational agents: BAY 2416964 (NSC825713), GNF351 (NSC835774), CH-223191 (NSC835775), CPI-455 (NSC825282), aza-TdCyd (NSC777586), decitabine (NSC127716), belinostat (NSC758774), entinostat (NSC756642), pevonedistat (NSC761192), tazemetostat (NSC777109), talazoparib (NSC765396), olaparib (NSC753686), selinexor (NSC780203), nedisertib (M3814, NSC802822), bortezomib (NSC756655), venetoclax (NSC766270), doxorubicin (NSC123127), elimusertib (BAY189344, NSC800525), ceralasertib (AZD6738, NSC777638), TAK-243 (NSC785004), alisertib (NSC759677), etoposide (NSC141540), topotecan (NSC609699), eribulin (NSC707389), gemcitabine (NSC613327), carboplatin (NSC241240), cisplatin (NSC119875), and SN-38 (NSC673596) were obtained from the National Cancer Institute (NCI) Developmental Therapeutics Program Chemical Repository (32). The FDA-approved anticancer drug set is available from the Developmental Therapeutics Program at https://dtp.cancer.gov/organization/dscb/obtaining/available plates.htm. […] The stock solutions were prepared in dimethyl sulfoxide (DMSO, Sigma-Aldrich, St. Louis, MO, cat. D2650), except for the platinum compounds which were prepared in saline (Quality Biological, Gaithersburg, MD, cat. 114-055-101), at 800-fold the tested concentration and stored at -70 degrees C prior to their use. All drugs and investigational agents were tested over a range starting from a high concentration at or near the clinical Cmax and decreasing in half-log increments. If the clinical Cmax for an agent had not been determined, the highest concentration tested was 10 microM (Table 1).
Cell Culture. All cells were maintained in an incubator at 37 degrees C and 5% CO2 with 95% humidity. The PDC lines were cultured according to standard operating procedures established by the NCI PDMR (https://pdmr.cancer.gov). Briefly, all PDCs were thawed and cultured in Matrigel-coated flasks prepared with a working solution of 1X Ham's F-12 nutrient mix, without supplementation (Invitrogen, Waltham, MA, cat. 11765054), 100 U/mL penicillin-streptomycin (Invitrogen, cat. 15140122), and 2.5% Matrigel (Corning Inc., Corning, NY, cat. 354248) for the first three passages. All PDCs were cultured in complete DMEM/F-12 media containing advanced DMEM/F-12 (Invitrogen, cat. 12634028), 4.9% defined fetal bovine serum, heat inactivated (HyClone Laboratories Inc., Logan, UT, cat. SH30070.03HI), 389 ng/mL hydrocortisone (Sigma-Aldrich, cat. H4001), 9.7 ng/mL human EGF recombinant protein (Invitrogen, cat. PHG0313), 23.4 microg/mL adenine (Sigma-Aldrich, cat. A2786), 97.3 U/mL penicillin-streptomycin (Invitrogen, cat. 15140122), 1.9 mM L-glutamine (Invitrogen, cat. 25030081), and 9.7 microM Y-27632 dihydrochloride (Tocris Bioscience, Bristol, United Kingdom, cat. 1254). The PDCs were cultured in complete DMEM/F12 media without 10 microM Y-27632 dihydrochloride for at least two passages prior to the screen. The established cell lines NCI-H1341 and […] were cultured in DMEM/F-12, HEPES (Invitrogen, cat. 11330032), 5% defined fetal bovine serum (HyClone Laboratories Inc., cat. SH30070.03), ITS premix universal culture supplement [insulin (5 microg/mL), transferrin (5 microg/mL), and selenious acid (5 ng/mL)] […]

[1] = curve of first compound, second compound 0.1 µM
[2] = curve of first compound, second compound 0.316 µM
[3] = curve of first compound, second compound 1 µM
[4] = curve of first compound, second compound 3.16 µM
[5] = curve of first compound, second compound 10 µM
[6] = second compound 0.1 µM, first compound 0.0316 µM
[7] = second compound 0.1 µM, first compound 0.1 µM
[8] = second compound 0.1 µM, first compound 0.316 µM
[9] = second compound 0.1 µM, first compound 1 µM
[10] = second compound 0.1 µM, first compound 3.16 µM
[11] = second compound 0.1 µM, first compound 10 µM
[12] = second compound 0.316 µM, first compound 0.0316 µM
[13] = second compound 0.316 µM, first compound 0.1 µM
[14] = second compound 0.316 µM, first compound 0.316 µM
[15] = second compound 0.316 µM, first compound 1 µM
[16] = second compound 0.316 µM, first compound 3.16 µM
[17] = second compound 0.316 µM, first compound 10 µM
[18] = second compound 1 µM, first compound 0.0316 µM
[19] = second compound 1 µM, first compound 0.1 µM
[20] = second compound 1 µM, first compound 0.316 µM
[21] = second compound 1 µM, first compound 1 µM
[22] = second compound 1 µM, first compound 3.16 µM
[23] = second compound 1 µM, first compound 10 µM
[24] = second compound 3.16 µM, first compound 0.0316 µM
[25] = second compound 3.16 µM, first compound 0.1 µM
[26] = second compound 3.16 µM, first compound 0.316 µM
[27] = second compound 3.16 µM, first compound 1 µM
[28] = second compound 3.16 µM, first compound 3.16 µM
[29] = second compound 3.16 µM, first compound 10 µM
[30] = second compound 10 µM, first compound 0.0316 µM
[31] = second compound 10 µM, first compound 0.1 µM
[32] = second compound 10 µM, first compound 0.316 µM
[33] = second compound 10 µM, first compound 1 µM
[34] = second compound 10 µM, first compound 3.16 µM
[35] = second compound 10 µM, first compound 10 µM
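For viability, T/C in this document: percent of DMSO vehicle-treated spheroid viability set as 100%.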

## Nc1ccccc1NC(=O)c1ccc(CNC(=O)OCc2cccnc2)cc1 + Cc1ccccc1N=Nc1ccc(NC(=O)c2ccnn2C)c(C)c1
[1]
  IC50: 1810 nM
[2]
  IC50: 1710 nM
[3]
  IC50: 1330 nM
[4]
  IC50: 1410 nM
[5]
  IC50: 1500 nM
[6]
  viability, T/C: 100%
[7]
  viability, T/C: 93.9%
[8]
  viability, T/C: 83.2%
[9]
  viability, T/C: 63.6%
[10]
  viability, T/C: 37%
[11]
  viability, T/C: 7.04%
[12]
  viability, T/C: 105%
[13]
  viability, T/C: 104%
[14]
  viability, T/C: 78.2%
[15]
  viability, T/C: 68.7%
[16]
  viability, T/C: 32.3%
[17]
  viability, T/C: 6.55%
[18]
  viability, T/C: 95.1%
[19]
  viability, T/C: 94.7%
[20]
  viability, T/C: 67.9%
[21]
  viability, T/C: 60.2%
[22]
  viability, T/C: 30.4%
[23]
  viability, T/C: 5.37%
[24]
  viability, T/C: 85.9%
[25]
  viability, T/C: 78.3%
[26]
  viability, T/C: 80.6%
[27]
  viability, T/C: 52.9%
[28]
  viability, T/C: 34%
[29]
  viability, T/C: 4.36%
[30]
  viability, T/C: 81.8%
[31]
  viability, T/C: 84.1%
[32]
  viability, T/C: 80.4%
[33]
  viability, T/C: 54.5%
[34]
  viability, T/C: 35.2%
[35]
  viability, T/C: 6.31%

## CC1(C)CCC(CN2CCN(c3ccc(C(=O)NS(=O)(=O)c4ccc(NCC5CCOCC5)c([N+](=O)[O-])c4)c(Oc4cnc5[nH]ccc5c4)c3)CC2)=C(c2ccc(Cl)cc2)C1 + Cc1cncc(-c2nc(NCCc3c[nH]c4ccccc34)c3ncn(C(C)C)c3n2)c1
[1]
  IC50: 6200 nM
[2]
  IC50: 5760 nM
[3]
  IC50: 7200 nM
[4]
  IC50: 7670 nM
[5]
  IC50: < 31.6 nM
[6]
  viability, T/C: 137%
[7]
  viability, T/C: 128%
[8]
  viability, T/C: 129%
[9]
  viability, T/C: 86.7%
[10]
  viability, T/C: 101%
[11]
  viability, T/C: 22%
[12]
  viability, T/C: 134%
[13]
  viability, T/C: 140%
[14]
  viability, T/C: 126%
[15]
  viability, T/C: 95.5%
[16]
  viability, T/C: 92.7%
[17]
  viability, T/C: 18.6%
[18]
  viability, T/C: 117%
[19]
  viability, T/C: 157%
[20]
  viability, T/C: 137%
[21]
  viability, T/C: 122%
[22]
  viability, T/C: 119%
[23]
  viability, T/C: 23.1%
[24]
  viability, T/C: 116%
[25]
  viability, T/C: 148%
[26]
  viability, T/C: 138%
[27]
  viability, T/C: 119%
[28]
  viability, T/C: 124%
[29]
  viability, T/C: 27.5%
[30]
  viability, T/C: 20.5%
[31]
  viability, T/C: 21%
[32]
  viability, T/C: 16.6%
[33]
  viability, T/C: 19.1%
[34]
  viability, T/C: 19.9%
[35]
  viability, T/C: 25%

## CC[C@@]1(O)C(=O)OCc2c1cc1n(c2=O)Cc2cc3c(CN(C)C)c(O)ccc3nc2-1
Compound 0.000316 µM
  viability, T/C: 107% and 108% and 98.2%
Compound 0.001 µM
  viability, T/C: 99.3% and 117% and 102%
Compound 0.00316 µM
  viability, T/C: 95.4% and 87.5% and 95.7%
Compound 0.01 µM
  viability, T/C: 89.1% and 80% and 82.3%
Compound 0.0316 µM
  viability, T/C: 77.6% and 75.8% and 57.6%
Compound 0.1 µM
  viability, T/C: 53.6% and 53.5% and 41.5%
Curve of compound
  IC50: > 100 nM and 54.2 nM
